The values that follow come from the NIST ThermoML archive (doi:10.1016/j.tca.2015.08.007).

Numbers after ± are expanded uncertainties.

For `CCCCCCCCCCOc1cc(C=NNC(=O)c2ccc(N=Cc3cc(OCCCCCCCCCC)c(OCCCCCCCCCC)c(OCCCCCCCCCC)c3)cc2)cc(OCCCCCCCCCC)c1OCCCCCCCCCC`, the Triple point temperature (Liquid crystal of unknown type) is on record as 385.85 ± 2 K.

With `CCCCCOc1ccc(-c2ccc(C#N)cc2)cc1` [4'-pentoxy-4-cyanobiphenyl], the Triple point temperature (Nematic liquid crystal) is listed as 339.75 ± 2 K.
